Experimental findings from patent US12383628B2 (priority 2016, dated 2025) are described below.

“Also recorded” adds a separate entry of the source. Read-outs that look alike come from different tables or passages of the source. Square brackets hold non-standard residues; d marks the D form. Ends that are not written are not given here. Peptide text beside a SMILES is read from it.

The nature of series [1]: Peptide gelation (tilted tube / inverted vial test, minimum gelation concentration). It is filed as physicochemical. To be noted: for Minimum gelation concentration: PBS 10 mM; for Minimum gelation concentration (w/v % in PBS): '/' = no gel. The procedure, abridged: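 TFA salt of peptide dissolved (1 or 2 mg per 100 μL) in PBS pH 7.4 or 0.9% NaCl saline, vortexed and sonicated, then left overnight at room temperature. Gelation judged by inverted vial test: no gravitational flow means gel. Rheology by dynamic rheometry at 37° C (G′, G″, tan δ).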

Series [2] can be described thus: TEM / cryo-TEM fibre morphology of hydrogels. It is filed as physicochemical. The conditions noted are these: for Fibre thickness: TEM, Example 2. How it is done: Formvar carbon-coated 400-mesh copper grids (Agar Scientific, Stansted, United Kingdom) were treated with plasma using an ELMO Glow discharge system to clean the grid surface and to render the carbon surface hydrophilic. Hydrogel samples were prepared 12 h in advance as described above. Small aliquots of sample (5 μL) were pipetted onto the carbon grids for adsorption. After 30 s, excess of sample was removed by using a Whatman 541 filter paper. The loaded grids were stained during 10 s with 1% uranyl formate after which the grids were air-dried. Samples were analysed using a JEOL JEM-1400 transmission electron microscope, operating at accelerating voltage of 120 kV. Images were recorded on a CMOS TemCam-F416 camera and accessory software of TVIPS.
200-mesh copper grids coated with perforated carbon film (Lacey carbon film: ProSci-Tech Old, Australia) were used and were glow discharged in nitrogen for 5 s immediately prior to use. Hydrogel samples were prepared 12 h in advance as described above. Small aliquots of sample (4 μL) were pipetted onto the carbon grids for adsorption. After 30 s, excess of sample was removed by using a Whatman 541 filter paper. The grid was then plunged into liquid ethane cooled by liquid nitrogen. Frozen grids were stored in liquid nitrogen until required. Samples were analysed using a Gatan 626 cryoholder and Tecnai 12 Transmission electron microscope, operating at accelerating voltage of 120 kV. Images were recorded using an FEI Eagle 4k×4k CCD camera.

Series [3] relates to L929 (mouse fibroblast) cells. The series can be described thus: Live/Dead cell viability assay on hydrogels (Example 5). To be noted: 24 h on hydrogel. It is filed as cell-based. On the procedure: L929 (mouse fibroblast) cells were obtained from ATCC® and maintained in Gibco®, MEM with GlutaMAX supplemented with 10% FBS (SAFC, Sigma), 1% Anti-Anti (100×, Gibco®) and 1% NEAA (100×, Gibco®). Cells were maintained on tissue culture treated polystyrene (TCPS) plates at 37° C. in a humified atmosphere containing 5% CO2 and 95% air. Cells were trypsinized, harvested and counted using a hemocytometer. The resulting cell suspension was diluted in Gibco® solution before addition to the hydrogels. For ease of handling and to produce homogeneous clear hydrogels, 100 μL of peptide hydrogels were prepared (in corresponding gelation conditions, see above) in Eppendorf tubes (0.5 ml) and transported using a 21G syringe to 96-well plates after simultaneously heating (60° C.) and mixing (900 rpm) using an Eppendorf ThermoMixer®. The hydrogels were left to set overnight in the wells at room temperature and were subsequently washed twice with 200 μL of Anti-Anti (100×, Gibco®) solution, 2 h each. After washing, media was removed and cells were seeded evenly over hydrogels. Cells were plated in duplicate on all hydrogels and control wells. Viability of cells on hydrogels was determined using the traditional Live/dead cell viability assay (Invitrogen) after culture durations of 24 h.
Plates were incubated in 5% CO2 at 37° C. for 1 day to allow cell attachment and spreading to occur. […]

Series [4] in a line: Dynamic rheometry of hydrogels (storage modulus G′). To be noted: 2% w/v in PBS, 37° C., value at 1 Hz. It is filed as physicochemical.
Protocol: Dynamic rheometry measurements were performed on an AR-G2 rheometer (TA Instruments) equipped with electrically heated plates and a 10 mm-diameter aluminium parallel plate-plate geometry. Viscoelastic properties were measured by oscillatory frequency sweeps at 37° C. in the range between 0.01 and 10 Hz, using a controlled strain of 0.05%. Hydrogel samples were made 12 h in advance. A ring-shaped reservoir filled with a saturated NH4Cl solution was used as a solvent trap.
To evaluate the mechanical properties of these hydrogels in a more quantitative manner, rheological experiments were performed. The viscoelastic properties of the peptide hydrogels were measured by dynamic rheometry at 37° C. This technique allowed to measure the storage modulus G′ (corresponding to the material's stiffness or rigidity), loss modulus G″ (corresponding to the viscous properties of the material) and loss factor tan (o) (ratio of G″ over G′).
The conditions of series [5]: after 4 days of incubation.
Protocol: (§1) Human plasma was obtained from the Belgian Red Cross (Vlaams-Brabant, Leuven). […] Frozen (−20° C.) human plasma samples were thawed and thermostated to 37+2° C. Dissolution of the lyophilized peptide and consecutive dilutions were performed in water. […] On every time point 100 μL spiked plasma was transferred to a 500 μL Eppendorf tube and a protein crash was performed using 300 μL methanol+0.1% TFA (4° C.). Suspensions were vortexed for 15 seconds and placed at 4° C. for 30 to 45 minutes. After centrifugation at 14000 rpm for 20 minutes, 100 μL supernatant was diluted with 100 μL water in the injection vial. Injection samples were vortexed for 5 seconds and placed in the autosampler. […] Concentrations were calculated by use of the calibration curve and transferred to a semi-log chart presenting the log concentrations as a function of time. The optimum curve was used to calculate the peptide-half life. Calculations were performed using Microsoft® Office Professional 2010 Excel.
Series [6] in a line: In vivo monitoring of cargo release with SPECT/CT. The arrangement: species or system C57Bl/6J mice. How it is done: The ^111In-labeled molecules were diluted up to 1 ml with PBS and either used as such, or incorporated within the hydrogel as described below.
Images were reconstructed using a filtered back-projection algorithm.
Images were quantified using the software AMIDE (sourceforge.net).

Series [7] in a line: pH of the hydrogel. It is filed as physicochemical.
Series [8] is described as follows: in vitro. The conditions noted are these: human, plasma.
Protocol: Human plasma was obtained from the Belgian Red Cross (Vlaams-Brabant, Leuven). Prior to the stability test, selectivity, stability of the compound in the injection solvent, linearity, accuracy and precision of the method were investigated. Frozen (−20° C.) human plasma samples were thawed and thermostated to 37±2° C. Dissolution of the lyophilized peptide and consecutive dilutions were performed in water. The resulting aqueous solutions of each peptide individually was spiked in human plasma (10:90 v/v) with final plasma concentrations of 9 μM.
On every time point 100 μL spiked plasma was transferred to a 500 μL Eppendorf tube and a protein crash was performed using the corresponding precipitation solvent (4° C.). Suspensions were vortexed for 15 s and placed at 4° C. for 30 to 45 min. After centrifugation at 18 625 g for 20 min, 100 μL supernatant was diluted with 100 μL water in the injection vial.
Injection samples were vortexed for 5 sand placed in the autosampler. […] Concentrations were calculated by use of the calibration curve and transferred to a semi-log chart presenting the log concentrations as a function of time. The optimum curve was used to calculate the peptide half-life. Calculations were performed using Microsoft® Office Professional 2010 Excel.
For series [9] the following is noted: for Hydrogel volume remaining: 2 w/v% in PBS, 150 μL s.c.
Protocol: ^111/n-labeling of DOTA-peptide—^111InCb (5 μl,±4 MBq) (Mallinckrodt) was added to 200 μl 1 mg/ml DOTA-peptide 6, dissolved in 0.2 M ammonium acetate buffer (NH4OAc) pH 5, and incubated for 30 min at 50° C. Radiochemical purity (>95%) was verified by ITIC using 0.1 M citrate buffer pH 5 as mobile phase. 200 μl of ^111In-peptide 6 was diluted up to 1 ml with phosphate buffered saline (PBS, 10 mM) and incorporated within the hydrogel as described below.
After sequential vortexing and sonication, hydrogels (2 w/v¾) were formed and let to rest overnight.
C57Bl/6J mice were purchased by Charles River (n=3 per group) and all experimental procedures were performed under 2.5% isoflurane anesthesia (Iso-vet). 150 μL (0.518±0.037 MBq) of the ^111In-labeled hydrogel (stability experiment) or 150 μL (1.702±0.777 MBq) of hydrogels loaded with ^111In-labeled cargos (cargo release experiment) were injected subcutaneously on the hind limb. For comparison, 150 μL of ^111In-labeled cargos not loaded into a hydrogel were also subcutaneously injected. Immediately after injection, at 1 h30, 3 h, 6 h, 12 h, 24 h, 48 h and 72 h, animals were subjected to a SPECT/CT scan. SPECT images were acquired on an e.cam^180 system (Siemens) equipped with two triple-pinhole collimators designed for ^111In (1.5 mm pinhole opening, 250 mm focal length, 47 mm radius of rotation). Images were acquired over 360° in 64 projections of 30 s into a 128×128 matrix and reconstructed using an iterative algorithm correcting for radioactive decay and allowing automatic fusion with CT images (based on six 57Co fiducial markers). […]
Maximum intensity projections (MIPs) were generated in Osirix Medical Software. Images were quantified using the software AMIDE (sourceforge.net). For the stability experiments, the size of the gel was determined by automatic delineation, for the cargo release experiments, the total radioactivity within a ROI drawn on the hind limb was calculated. Results were expressed as percentage of injected dose remaining in function of time. […]
Series [10] is described as follows: in vitro. To be noted: human, plasma, 37° C., in solution.
Protocol: as §1
Series [11] concerns L929 mouse fibroblasts. The series can be described thus: Cytotoxicity, Live/Dead viability staining on hydrogels (Example 9). It is filed as cell-based. How it is done:
Hydrogels were prepared at 1, 2 or 3 mg/100 μL as duplicate in a 96-well ULA plate (Cat #CORN3474; Corning-Costar, 60 μL each well). The gels were photographed and pre-equilibrated before seeding with cells. For equilibration, gels were incubated at room temperature in 40 μL of L929 culture medium with double-strength Anti-Anti (Cat #15240062, GIBCO) for 2 h prior to seeding with cells. The equilibration medium was removed before cell seeding and retained to examine if the gels dissolved (even partially) or disintegrated into the culture medium. Next, […] mouse fibroblasts (ATCC) were seeded onto hydrogels at a concentration of 200,000 cells/ml in a volume of 50 μl. The cells were photographed immediately after seeding, observed by microscopy 2 h post-seeding and then observed and photographed at 24 h post-seeding. The cell culture medium consisted of MEM+GlutaMAX I (Cat #41090-036; GIBCO); 10% foetal bovine serum (Cat #12003C; SAFC, Sigma), 2× Anti-Anti (Cat #[…]) and 1× Non-Essential Amino Acids (Cat #41090-036; GIBCO).
Bright field microscopy was performed through use of a IX71 inverted microscope with NIS-Elements F3.0 imaging software (Olympus). The TE2000 Eclipse fluorescent microscope with NIS-Elements AR3.2 software (Nikon) was used for fluorescence imaging microscopy. Automated cell counting was performed on the NC-200 NucleoCounter using proprietary lysis and stabilising reagents and cassettes (ChemoMetec).
The viability and distribution of cells was assessed using a LIVE/DEAD Viability/Cytotoxicity Kit *for Mammalian cells* (Live-Dead Kit), (Cat #13224; Molecular Probes). Briefly, a working solution of live/dead solution was made as per manufacturer's instructions by adding 1.25 μl of Calcein AM (solution A) to 2.5 ml of pre-warmed PBS. The solution was thoroughly mixed by vortex and 2.5 μl of Ethidium homodimer (solution B), was added before vortexing a second time to mix. Excess medium was removed and the gels rinsed with 20 μl of warm PBS before a 40 μl of Live/Dead kit working solution was added to each well. The plate was incubated in a 37° C. cell culture incubator for 20 min before viewing using a fluorescent microscope. Green fluorescence was emitted from the cytoplasm of viable cells (excitation/emission ˜495 nm/˜515 nm) while dead cell nuclei fluoresced red (excitation/emission ˜495/˜635 nm) allowing a distinction to be made between viable and dead cells.

Series [12] can be described thus: In vivo monitoring of cargo release with fluorescence imaging. The arrangement: species or system athymic nude mice. How it is done:
Fluorescent cargo—IRDye800CW N-hydroxysuccinimide (NHS) ester (Li-COR Biosciences) was solubilized at 4 mg/l in PBS. The solution was stirred for 2 h in order to hydrolyze the NHS ester, resulting in compound 2 as fluorescent cargo (MW=1068 g/mol). The dye solution was either used as such, or incorporated within the hydrogel as described below.
Animal study protocols were approved by the Ethical Committee for Animal Experiments of the Vrije Universiteit Brussel (also for section 2.5.). After subcutaneous injection of 150 μl of hydrogel containing 0.5 nmol of IRDye 800CW in athymic nude mice (Charles River, n=3 per group), fluorescence reflectance images of the posterior side of the mice were acquired over 24 h using the Fluobeam800 (Fluoptics) under 2.5% isoflurane anesthesia (Iso-Vet, Eurovet NV/SA). Fluorescence images were overlaid with white light images for anatomical localization. Regions of interest (ROI) were drawn around the site of injection and total fluorescence signal was measured within these ROIs using ImageJ software.

Broadly, the half-life is the time in which the quantity being followed falls by half. A higher half-life goes with slow decline.

In the case of `NCCCC[C@@H](NC(=O)[C@@H](Cc1ccccc1)NC(=O)[C@@H](CCC(N)=O)NC(=O)[C@@H](Cc1ccccc1)NC(=O)[C@@H](CCC(=O)O)NC(=O)[C@H](N)Cc1ccccc1)C(N)=O` [peptide 4, H-DPhe-DGlu-DPhe*-DGln-DPhe-DLys-NH2] (H-[dF][dE][dF][dQ][dF][dK]-NH2), the Minimum gelation concentration in series [1] (pH 7.4) is 24 mM; in series [1] (pH 7.4 (text, Examples 1-2)), 2 % w/v. For the same molecule, in series [1], the “Minimum gelation concentration (w/v % in PBS)” value is 3 w/v %. The Fibre thickness entry in [2] is “ca. 10 nm”. The “Cytotoxicity (Live/Dead cell viability, qualitative)” value in [3] is “evenly distributed number of red (dead cells) and green (live cells) fluorescent cells”. Besides, the “Storage modulus G′” value in series [4] is on record as “ca. 1000 Pa”. In addition, the “Stability after incubation with human plasma” value in series [5] is on record as “remained intact”.
For the molecule “DOTA-4-amino-2-cyclohexylmethyl-indolo[3,4-c]azepin-2-on [small molecule 3]”, in series [6] (111In-labeled cargo s.c. in solution, 1 mg/ml), the “Clearance from the injection site” value is given as “totally cleared within three hours”. Besides, the Release profile result in [6] (co-formulated within hydrogel of peptide 2, s.c.) is “released in a rather fast manner”.
With “FEFQFK-NH2 [peptide 2, H-Phe-Glu-Phe*-Gln-Phe-Lys-NH2]”, the “pH of the gel” value in [7] was 4.02. Besides, the Re-gelation after injection entry in series [1] (25G needle used for s.c. injections) is reported as “immediate re-gelation after injection through a 25G needle”. Further, the Minimum gelation concentration in series [1] (pH 7.4) was 24 mM; in [1] (pH 7.4 (text, Examples 1-2)), 2 % w/v. Besides, the “Minimum gelation concentration (w/v % in PBS)” value in series [1] came out at 2 w/v %. The Fibre thickness entry in series [2] was “ca. 10 nm”. Moreover, the Fibre diameter in series [2] (cryoTEM and negative staining, Example 9) is reported as about 5 nm. Besides, the half-life at 9 μM in series [8] is about 15 min. The “Cytotoxicity (Live/Dead cell viability, qualitative)” value in series [3] is “the majority of cells were green fluorescent and thus, were viable; also recorded: noncytotoxic”. Besides, in series [4], the “Storage modulus G′” value was “ca. 8000 Pa”. Also, the Hydrogel volume remaining was 24% in series [9] (12 h) and 9% in series [9] (72 h post-injection). For the same molecule, in series [9] (after subcutaneous injection of the hydrogel), the “Time within which most degradation occurred” value was at most 12 h. This molecule displayed a half-life at 72 μM in series [10] of about 15 min. Moreover, the Cytotoxicity in vitro result in series [11] is recorded as “showed no cytotoxicity in vitro”.
IRDye 800CW carboxylate: the “Time the fluorescent signal remains visible” value in series [12] (dye co-formulated within hydrogel of peptide 2 (2 w/v%), s.c.) is “more than 24 h”. The “Fluorescent signal at the injection site” value in series [12] (dye injected s.c. as solution) is on record as “reduces drastically within approximately two hours”.
